According to EP2527319A1, “Crystalline forms of pregabalin and co-formers in the treatment of pain” (Laboratorios del. Dr. Esteve, S.A., priority 2011, dated 2012):
In brackets after ≈: the same amount, converted by molar mass. Like-named read-outs stand apart in the source and are kept apart here.

Tests used:
[1] = for hygroscopicity (classification from DVS): 15 to 95% RH, result in words; for hygroscopicity (classification from DVS) / Δ %weight 24 h: DVS; for Δ %weight 24 h: humidity increased stepwise from 15 to 95% RH at constant temperature; for Hygroscopicity (85-95%): summary table, same figures as Δ %weight 24 h of Table 1
Description: The objective was to measure the hygroscopicity of some crystalline forms of the present invention. The percentage increase of mass was calculated in order to evaluate the adsorption of water in the samples.
Dynamic Vapour Sorption (DVS) analysis is a technique specifically designed to provide information related to material response to changes in relative humidity and T°C. A Q5000 SA DVS equipment from TA Instruments was used for running the experiment.
The variation of the weight is controlled and the following percentage is calculated: Δ %weight = (Pn-P1)/P1 x 100 [formula] wherein: P1 is the initial weight , Pn is the weight measured for the sample.

[2] = for Hygroscopicity: storage at ambient and humidity (40 C, 85-95% RH) conditions; for Hygroscopicity (85-95%): summary table, 85-95% RH, result in words
[3] = pH 7.4; free form; cited from earlier work

| SMILES | hygroscopicity (classification from DVS) [1] | Δ %weight 24 h [1] | Hygroscopicity (85-95%) [1] [%] | Hygroscopicity [2] | Hygroscopicity (85-95%) [2] | solubility in water [3] [mg/mL] | hygroscopicity (classification from DVS) ([1]; listed as sample 1) |
| --- | --- | --- | --- | --- | --- | --- | --- |
| CC(C)C[C@H](CN)CC(=O)O.CC(C)C[C@H](CN)CC(=O)O.O.O=C(O)/C=C\C(=O)O.O=C(O)/C=C\C(=O)O [Example 7, (S)-Pregabalin - maleic acid - H2O (1:1:0.5)] | very hygroscopic | 37,9% | 37.9 |  |  |  |  |
| CC(C)C[C@H](CN)CC(=O)O.CCCCCCCCCCCC(=O)O [Example 11, (S)-Pregabalin - lauric acid (1:1)] | not hygroscopic | 0% |  | non-hygroscopic | Non-hygroscopic |  |  |
| CC(C)C[C@H](CN)CC(=O)O [PGB free base, (S)-3-(aminomethyl)-5-methylhexanoic acid, reference compound] |  |  |  |  | Non-hygroscopic | 32 (≈ 201 mM) |  |
| CC(C)C[C@H](CN)CC(=O)O.Cl.O=C(O)[C@@H]1CCCN1 [Example 6, (S)-Pregabalin - L-proline - HCl (1:1:1)] | deliquescent | 95% | 95 | hygroscopic tendencies, particularly at humid conditions, to such an extent that it liquefied |  |  | sufficient water was absorbed to form a liquid |
